Values joined by “and” are separate entries in the source; they are usually repeats but may differ in a detail not shown here. Identical values can stand only once.
What was measured:
[1] = molecular target: Recombinant human Src enzyme (Homo sapiens, UniProt P12931); assay: Src kinase assay (LANCE homogeneous FRET); type: biochemical; conditions: 100 μM ATP, 70 min at 37° C.; multiple entries = tested multiple times
Procedure: Recombinant human Src enzyme was obtained from PanVera (P3044). […] Homogeneous fluorescence resonance energy transfer kinase assays were performed using the europium/APC detection format (LANCE, Perkin Elmer). Src enzyme (10 ng) was mixed with biotinylated peptide (final concentration 2 μM), 50 mM Hepes (pH 7.5), 10 mM MgCl2, 20 ug/ml BSA, 0.001% Brij-35 (Sigma), 100 μM ATP, 1% DMSO. The kinase reaction was incubated for 70 min at 37° C. The reaction was stopped with EDTA at a final concentration of 30 mM EDTA/25 mM Hepes (pH 7.5)/10 μg/ml BSA. The mixture was combined with Eu-labeled anti-phosphotyrosine antibody PT66 (Perkin Elmer, AD0068) and Streptavidin Surelight-APC (Perkin Elmer, CR130-100) in 50 mM Hepes (pH 7.5)/20 μg/ml BSA, and incubated for 30 min according to manufacturer's specifications. Fluorescence intensity at 665 nm was used to monitor the extent of the kinase reaction. Multiple entries for a given compound indicate that it was tested multiple times.

[2] = molecular target: Rat2 fibroblasts stably transformed with v-Src/Hu c-Src fusion gene (Homo sapiens, UniProt P12931, cells depend on it, form not given); assay: Anchorage independent Src-transformed fibroblast proliferation assay; type: cell-based, rat; conditions: suspension growth, MTS on Day 5; multiple entries = tested multiple times; read-out: Src cell IC50
Procedure: Anchorage Independent Src-transformed Fibroblast Proliferation Assay
Rat2 fibroblasts stably transformed with a plasmid containing a CMV promotor controlled v-Src/Hu c-Src fusion gene in which the catalytic domain of human c-Src was inserted in place of the v-Src catalytic domain in the v-Src gene are used for the measurement of src dependent suspension growth. Ultra-low cluster plates (Costar # 3474) are seeded with 10,000 cells per well on Day 1. Alternatively, Ultra-low cluster plates (Costar 3474) treated with Sigmacote (Sigma), rinsed with 70% ethanol, after drying in the hood, are seeded with 5000 cells.

[3] = test system: rat model of transient focal ischemia; assay: Rat model of transient focal ischemia (90 min MCA occlusion, reperfusion 48 hours); type: in vivo, Wistar rats; conditions: for reduction in infarct volume as a percent of control: 48 hours post MCA occlusion, statistical error 7-10%; for improved recovery from stroke-induced neurological deficits, as a percent of control: evaluated over 48 hours, statistical error 10-12%
Procedure: IV Administration of Example 2 Provides Neuroprotection in a Model of Transient Focal Ischemia
Example 2 was tested in a rat model of transient focal ischemia. Wistar rats were subjected to a 90 min occlusion of the middle cerebral artery (MCA) using an intraluminal suture approach as described by Longa et al., Stroke 1989, 20:84 followed by reperfusion for 48 hours. Four hours after the initial onset of ischemia, animals received compound of Example 2 as a single i.v. bolus in 5% dextrose, 0.9% lactic acid at pH 4.5-5.0 (3 mg/kg, 10 mg/kg or 30 mg/kg). Following reperfusion, the animals were evaluated over a 48 hour period for neurological function deficit. Infarct size was measured following sacrifice at 48 hours post MCA occlusion.

[4] = test system: rat model of intracerebral hemorrhage; assay: Rat model of intracerebral hemorrhage induced by intrastriatal infusion of collagenase; type: in vivo; conditions: measured 24 hours later
Procedure: IV Administration of Example 2 Provides Neuroprotection in the Model of Hemorrhagic Stroke
Example 2 was tested in a rat model of intracerebral hemorrhage induced by intrastriatal infusion of collagenase substantially as described by Rosenberg et al., Stroke, 1990, 20:801. In this model, infusion of collagenase into caudate nucleus leads to proteolytic destruction of collagen in basal lamina of blood vessels and induces intracranial bleeding and edema peaking in 24-48 hours. Example 2 was administered at 4 hours post-induction of hemorrhagic stroke as a single i.v injection at the doses of 10 mg/kg or 30 mg/kg. 24 hours later brain water content was determined as a measure of edema.

[5] = test system: rat model of permanent occlusion of middle cerebral artery; assay: Rat model of permanent occlusion of middle cerebral artery (permanent focal ischemia); type: in vivo
Procedure: IV Administration of Example 2 Provides Neuroprotection and Improves Long-Term Neurological Recovery in a Model of Permanent Focal Ischemia
Example 2 was tested in a rat model of permanent occlusion of middle cerebral artery, without the reperfusion, substantially as described by Chen et al., Stroke, 1986, 17:738. This is a more stringent model than the transient focal ischemia. Two hours following an electrocoagulation of middle cerebral artery, vehicle or Example 2 were administered at 10 mg/kg i.v followed by 3 additional doses of 10 mg/kg iv administered at 4, 24 and 26 hours post-induction of stroke. In one study, volume of infracted brain tissue was evaluated at 48 hour post-stroke. In a second study, animals were subjected to testing of sensori-motor function based on tactile and propioceptive limb placement substantially as described by DeRyck et al., Brain Res. 1992, 573:44 at three day intervals over a timecourse of three weeks following stroke. In the animals treated with Example 2 a statistically significant reduction by 24% of the infarct volume was found at 48 hours post-induction of stroke.

[6] = 10 mg/kg single i.v. bolus 4 hours after onset of ischemia
[7] = 30 mg/kg single i.v. bolus 4 hours after onset of ischemia

Recombinant human Src enzyme, sequence (P12931 whole entry): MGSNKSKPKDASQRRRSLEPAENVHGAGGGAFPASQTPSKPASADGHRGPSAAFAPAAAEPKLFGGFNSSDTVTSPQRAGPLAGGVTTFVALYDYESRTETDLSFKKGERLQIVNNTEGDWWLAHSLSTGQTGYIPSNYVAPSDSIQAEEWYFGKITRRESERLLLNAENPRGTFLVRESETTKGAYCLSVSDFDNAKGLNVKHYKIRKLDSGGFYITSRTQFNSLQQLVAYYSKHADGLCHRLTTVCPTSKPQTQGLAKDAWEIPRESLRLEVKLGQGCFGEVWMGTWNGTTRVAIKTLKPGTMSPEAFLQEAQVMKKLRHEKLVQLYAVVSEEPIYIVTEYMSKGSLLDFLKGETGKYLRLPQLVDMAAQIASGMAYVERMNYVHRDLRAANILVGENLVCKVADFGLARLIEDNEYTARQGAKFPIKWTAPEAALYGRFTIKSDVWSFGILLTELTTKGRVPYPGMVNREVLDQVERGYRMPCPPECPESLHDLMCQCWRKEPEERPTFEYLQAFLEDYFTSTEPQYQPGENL
Rat2 fibroblasts stably transformed with v-Src/Hu c-Src fusion gene, sequence (P12931 whole entry, change not shown, the tested form may be a part): as the sequence (P12931 whole entry) above

SMILES	IC50 [1]	GI50 [2]	reduction in infarct volume as a percent of control [3, 6]	improved recovery from stroke-induced neurological deficits, as a percent of control [3, 6]	reduction in infarct volume as a percent of control [3, 7]	improved recovery from stroke-induced neurological deficits, as a percent of control [3, 7]	reduction of post-hemorrhagic brain edema (brain water content) ([4]; 10 mg/kg single i.v. injection 4 hours post-induction)	reduction of post-hemorrhagic brain edema (brain water content) ([4]; 30 mg/kg single i.v. injection 4 hours post-induction)	reduction of the infarct volume ([5]; 10 mg/kg i.v. at 2, 4, 24 and 26 hours post-induction of stroke, 48 hours post-stroke)	long-term sensorimotor recovery from neurological deficits (limb placement) ([5]; 10 mg/kg i.v. at 2, 4, 24 and 26 hours post-stroke, tested at three day intervals over three weeks)
COc1cc(Nc2c(C#N)cnc3cc(C#CCCN(C)C)c(OC)cc23)c(Cl)cc1Cl [Example 1, 4-[(2,4-Dichloro-5-methoxyphenyl)amino]-7-[4-(dimethylamino)but-1-ynyl]-6-methoxy-3-guinolinecarbonitrile]	5 nM and 4.7 nM	252 nM and 240 nM								
CCOc1cc2c(Nc3cc(OC)c(Cl)cc3Cl)c(C#N)cnc2cc1C#CCCN1CCN(C)CC1 [Example 5, 4-[(2,4-Dichloro-5-methoxyphenyl)amino]-6-ethoxy-7-[4-(4-methylpiperazin-1-yl)but-1-ynyl]-3-quinolinecarbonitrile]	6.5 nM and 2.8 nM	96 nM and 183 nM and 154 nM and 103 nM								
COc1cc(Nc2c(C#N)cnc3cc(C#CCCN4CCNCC4)c(OC)cc23)c(Cl)cc1Cl [Example 4, 4-[(2,4-Dichloro-5-methoxyphenyl)amino]-6-methoxy-7-(4-Piperazin-1-ylbut-1-ynyl)-3-quinolinecarbonitrile]	5.9 nM and 4.8 nM	435 nM and 605 nM								
COc1cc(Nc2c(C#N)cnc3cc(C#CCCN4CCN(C)CC4)c(OC)cc23)c(Cl)cc1Cl [Example 2, 4-[(2,4-Dichloro-5-methoxyphenyl)amino]-6-methoxy-7-[4-(4-methylpiperazin-1-yl)but-1-ynyl]-3-guinolinecarbonitrile]	3.5 nM and 4.2 nM	71 nM and 70 nM and 77 nM	32%	35%	40%	53%	18%	24%	24%	significantly improved long-term sensorimotor recovery
COc1cc(Nc2c(C#N)cnc3cc(C#CCCN4CCOCC4)c(OC)cc23)c(Cl)cc1Cl [Example 3, 4-[(2,4-Dichloro-5-methoxyphenyl)amino]-6-methoxy-7-(4-morpholin-4-ylbut-1-ynyl)-3-guinolinecarbonitrile]	4 nM and 4.1 nM	206 nM and 183 nM								
